Assay results as given in publication PMC8667942 (Journal of Enzyme Inhibition and Medicinal Chemistry, 2021).

Tests used:
Experiment in all cases: Direct CYP inhibition assay, pooled human liver microsomes, LC-MS/MS
Format in all cases: in vitro ADME
CYP2A6 = target: T1, CYP2A6 (Homo sapiens, UniProt P11509); details: pooled HLMs, up to 50 μM, coumarin substrate
T1 construct: from tissue; host or cells: pooled human liver microsomes
T1 sequence (P11509 1-494): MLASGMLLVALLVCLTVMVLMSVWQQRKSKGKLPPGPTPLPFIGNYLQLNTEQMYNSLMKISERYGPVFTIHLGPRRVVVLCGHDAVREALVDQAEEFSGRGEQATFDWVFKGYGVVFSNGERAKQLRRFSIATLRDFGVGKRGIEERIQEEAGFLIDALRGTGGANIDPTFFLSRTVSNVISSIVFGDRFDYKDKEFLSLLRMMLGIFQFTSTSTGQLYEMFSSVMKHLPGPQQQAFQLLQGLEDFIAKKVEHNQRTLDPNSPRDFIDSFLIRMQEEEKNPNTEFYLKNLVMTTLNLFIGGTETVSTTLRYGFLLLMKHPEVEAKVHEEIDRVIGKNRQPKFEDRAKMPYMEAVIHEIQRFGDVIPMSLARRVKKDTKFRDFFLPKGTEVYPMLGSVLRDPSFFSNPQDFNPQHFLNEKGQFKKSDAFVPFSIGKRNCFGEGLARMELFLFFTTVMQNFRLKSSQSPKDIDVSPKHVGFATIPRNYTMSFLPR
Procedure: (§1) Reactions were incubated in eight-well strips placed in an 8 × 12 racks (1.2 ml; VWR, Emeryville, CA). The incubation mixtures (final volume, 200 μL) contained 0.2 mg/mL HLMs, 0.1 M phosphate buffer (pH 7.4), 1 mM NADPH, and various CYP isoform-specific substrate cocktail sets (A set: phenacetin, coumarin, amodiaquine, S-mephenytoin, dextromethorphan, and midazolam; B set: bupropion, tolbutamide, chlorzoxazone, and testosterone). […] Substrates were dissolved and serially diluted with acetonitrile to the required concentration in all experiments. […] The reactions were incubated at 37 °C in a shaking water bath. The reactions were terminated by placing the incubation tubes on ice, adding 200 μL of cold acetonitrile containing carbamazepine (100 nM) and 4-methylumbelliferone (500 nM) as an internal standard after 10 min, and agitating with a vortex mixer before centrifugation. The samples for each enzyme assay were centrifuged at 3,000 × g for 20 min at 4 °C, and supernatants of the individual reaction samples and pooled cocktail incubation samples (A set: B set, 1:1) were analysed using LC-MS/MS.
(§2) Sample injection volume was 10 μL, and separation was performed on an Atlantis™ dC18 column (2.1 × 50 mm i.d., 3 μm; Waters, Milford, MA, USA) and Luna™5u C18 column (2.0 × 30 mm i.d.; Phenomenex, Torrance, CA, USA) with a SecurityGuard™ C18 guard column (2.0 × 4.0 mm i.d.; Phenomenex, Torrance, CA, USA) maintained at 30 °C. The column was pre-equilibrated in 100% v/v solvent A (deionized water containing 0.1% v/v formic acid)/0% v/v solvent B (acetonitrile containing 0.1% v/v formic acid) at a flow rate of 0.4 ml/min. […] Quadrupoles Q1 and Q3 were set on unit resolution. The samples were analysed via multiple reaction monitoring (MRM) and enhanced product ion (EPI) scan mode. The turbo ion spray interface was operated in the positive ion mode at 5,500 V. The operating conditions were determined as follows: ion source temperature, 600 °C; nebulising gas flow, 50 L/min; auxiliary gas flow, 4.0 L/min; curtain gas flow, 20 L/min; collision gas (nitrogen) pressure 3.6 × 10^−5 Torr. Nitrogen gas was used for CUR, CAD, and NEB. The MRM transitions, collision energies and retention time were determined for each metabolite. The samples were analysed via MRM as described in our previous study. The scan dwell time was set at 0.08 s for every channel. Data acquisition and analysis was performed using the Analyst™ software (version 1.5.2; Applied Biosystems, Foster City, CA, USA).

CYP2C19 = target: T2, CYP2C19 (Homo sapiens, UniProt P33261); details: pooled HLMs, up to 50 μM, S-mephenytoin substrate
T2 construct: from tissue; host or cells: pooled human liver microsomes
Procedure: as §1, §2

CYP2C8 = target: T3, CYP2C8 (Homo sapiens, UniProt P10632); details: pooled HLMs, up to 50 μM, amodiaquine substrate
T3 construct: from tissue; host or cells: pooled human liver microsomes
T3 sequence (P10632 1-490): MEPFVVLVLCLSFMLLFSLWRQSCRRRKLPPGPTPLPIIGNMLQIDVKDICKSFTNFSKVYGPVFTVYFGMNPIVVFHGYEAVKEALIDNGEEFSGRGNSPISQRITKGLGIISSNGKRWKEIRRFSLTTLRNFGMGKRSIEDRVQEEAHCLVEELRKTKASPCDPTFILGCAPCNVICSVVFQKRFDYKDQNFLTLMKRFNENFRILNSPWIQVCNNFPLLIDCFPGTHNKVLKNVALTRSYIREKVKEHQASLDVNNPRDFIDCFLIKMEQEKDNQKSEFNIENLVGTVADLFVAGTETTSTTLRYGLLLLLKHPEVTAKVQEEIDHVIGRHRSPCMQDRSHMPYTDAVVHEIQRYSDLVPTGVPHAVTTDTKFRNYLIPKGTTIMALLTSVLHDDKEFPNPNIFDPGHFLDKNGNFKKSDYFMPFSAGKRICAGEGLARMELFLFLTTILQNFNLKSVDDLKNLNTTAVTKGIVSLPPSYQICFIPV
Procedure: as §1, §2

CYP1A2 = target: T4, CYP1A2 (Homo sapiens, UniProt P05177); details: pooled HLMs, up to 50 μM, phenacetin substrate
T4 construct: from tissue; host or cells: pooled human liver microsomes
T4 sequence (P05177 1-516): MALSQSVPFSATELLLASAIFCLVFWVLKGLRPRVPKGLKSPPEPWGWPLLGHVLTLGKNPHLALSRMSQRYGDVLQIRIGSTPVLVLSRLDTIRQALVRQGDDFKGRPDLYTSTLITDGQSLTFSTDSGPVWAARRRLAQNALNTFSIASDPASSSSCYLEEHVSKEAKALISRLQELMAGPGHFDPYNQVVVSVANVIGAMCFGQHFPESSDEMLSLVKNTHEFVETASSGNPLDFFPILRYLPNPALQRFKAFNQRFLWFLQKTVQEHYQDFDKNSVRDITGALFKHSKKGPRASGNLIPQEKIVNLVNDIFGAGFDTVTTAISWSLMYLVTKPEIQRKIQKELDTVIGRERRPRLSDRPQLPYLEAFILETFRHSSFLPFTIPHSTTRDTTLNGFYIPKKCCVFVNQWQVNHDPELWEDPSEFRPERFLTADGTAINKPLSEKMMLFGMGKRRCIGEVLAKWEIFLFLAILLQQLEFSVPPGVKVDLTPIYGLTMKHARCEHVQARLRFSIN
Procedure: as §1, §2

CYP2C9 = target: T5, CYP2C9 (Homo sapiens, UniProt P11712); details: pooled HLMs, up to 50 μM, tolbutamide substrate
T5 construct: from tissue; host or cells: pooled human liver microsomes
Procedure: as §1, §2

T5 sequence (P11712 whole entry): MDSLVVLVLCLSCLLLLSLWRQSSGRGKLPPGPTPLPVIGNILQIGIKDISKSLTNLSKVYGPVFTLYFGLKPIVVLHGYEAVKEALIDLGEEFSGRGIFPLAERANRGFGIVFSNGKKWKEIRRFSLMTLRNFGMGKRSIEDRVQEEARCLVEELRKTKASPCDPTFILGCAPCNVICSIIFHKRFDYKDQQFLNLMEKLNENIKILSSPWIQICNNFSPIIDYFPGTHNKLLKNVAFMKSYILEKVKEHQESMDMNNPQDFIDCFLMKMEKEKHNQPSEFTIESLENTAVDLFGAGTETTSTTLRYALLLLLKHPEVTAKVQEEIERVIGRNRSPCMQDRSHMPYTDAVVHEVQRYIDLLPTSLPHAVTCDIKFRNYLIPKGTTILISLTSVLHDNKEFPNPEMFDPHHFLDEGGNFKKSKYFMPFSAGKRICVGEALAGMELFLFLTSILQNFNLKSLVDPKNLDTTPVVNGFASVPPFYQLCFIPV
T2 sequence (P33261 whole entry): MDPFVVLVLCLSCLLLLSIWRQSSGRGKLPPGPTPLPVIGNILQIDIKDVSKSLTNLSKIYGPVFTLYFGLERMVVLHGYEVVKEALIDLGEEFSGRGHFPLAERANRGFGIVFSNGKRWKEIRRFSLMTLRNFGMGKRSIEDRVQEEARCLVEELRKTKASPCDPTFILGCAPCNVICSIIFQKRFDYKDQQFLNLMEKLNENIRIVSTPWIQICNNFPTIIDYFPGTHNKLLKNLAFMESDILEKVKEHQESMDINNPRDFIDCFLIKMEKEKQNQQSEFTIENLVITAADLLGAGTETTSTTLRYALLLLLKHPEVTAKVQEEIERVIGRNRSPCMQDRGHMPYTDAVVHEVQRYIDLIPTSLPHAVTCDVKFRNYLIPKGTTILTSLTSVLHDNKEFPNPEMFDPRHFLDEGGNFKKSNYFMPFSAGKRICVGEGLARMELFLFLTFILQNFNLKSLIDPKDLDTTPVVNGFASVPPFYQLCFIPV

O=[N+]([O-])c1ccc(CNc2nc(NCc3cccc(C(F)(F)F)c3)nc3[nH]cnc23)cc1 [TNP, N^6-[(4-nitrophenyl)methyl]-N^2-[[3-(trifluoromethyl)phenyl]methyl]-9H-purine-2,6-diamine]
no inhibitory effect: inhibitory effect on CYP2A6 (CYP2A6) | inhibitory effect on CYP2C19 (CYP2C19) | inhibitory effect on CYP2C8 (CYP2C8) | inhibitory effect on CYP1A2 (CYP1A2) | inhibitory effect on CYP2C9 (CYP2C9)
